The source of these data is patent publication US8076487B2, “Pyridone derivative and herbicide” (Kumiai Chemical Industry Co., Ltd., priority 2006, dated 2011).

Holding throughout (type): in vivo
Test [1] deals with early watergrass (Echinochloa oryzicola Vasing). In words: Test Example 1: herbicidal effect by soil application to paddy field. Particulars: for herbicidal effect, Echinochloa oryzicola Vasing: paddy field soil application, active ingredient 1,000 g per 1 hectare, wettable powder added dropwise to water surface the day after sowing, examined on the 21st day after application. A digest of the protocol:
(§1)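 Plants were sown in flooded (3 cm) paddy soil and evaluated for herbicidal effect 21 days after soil application in a greenhouse.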

In test [2] the test system is Japanese bulrush (Scirpus juncoides Roxb.). Described as above. Particulars: for herbicidal effect, Scirpus juncoides Roxb.: paddy field soil application, active ingredient 1,000 g per 1 hectare, wettable powder added dropwise to water surface the day after sowing, examined on the 21st day after application. A digest of the protocol: as §1
For test [3], the system named is heartshape false pickerelweed (Monochoria vaginalis (Burm.f.) C.Presl). The description is as above. Particulars: for herbicidal effect, Monochoria vaginalis (Burm. f.) C. Presl: paddy field soil application, active ingredient 1,000 g per 1 hectare, wettable powder added dropwise to water surface the day after sowing, examined on the 21st day after application. A digest of the protocol: as §1

For test [4], the system named is velvetleaf (Abutilon theophrasti medicus). The experiment in a line: Test Example 2: herbicidal effect by soil application to upland field. Particulars: soil surface spray, upland field soil, 1,000 g active ingredient per hectare, 21st day after application. As to the method:
(§2) [table] Test Example 2 Test on Herbicidal Effect by Soil Application to Upland field In a 80 cm2 plastic pot, field soil was filled. Seeds of barnyardgrass (Echinochloa crus-galli (L.) P. Beauv. var. crus-galli), green foxtail (Setaria viridis (L.) P. Beauv.), velvetleaf (Abutilon theophrasti medicus), and slender amaranth (Amaranthus viridis L.) were sown and covered with soils. The wettable powder prepared according to Formulation Example 1 was diluted in water and a 1,000 liter equivalent amount per 1 hectare so that the active ingredient becomes 1,000 g per 1 hectare was uniformly sprayed on a soil surface using a small sprayer. Then, on the 21st day after the application to the plants grew in a greenhouse, the herbicidal effect was examined in accordance with a standard shown in Table 34.

Test [5] deals with green foxtail (Setaria viridis (L.) P. Beauv.). The description is as above. Particulars: soil surface spray, upland field soil, 1,000 g active ingredient per hectare, 21st day after application. As to the method: as §2
Test [6] relates to barnyardgrass (Echinochloa crus-galli (L.) P. Beauv. var. crus-galli). The test is described as above. Particulars: soil surface spray, upland field soil, 1,000 g active ingredient per hectare, 21st day after application. As to the method: as §2
In test [7] the test system is slender amaranth (Amaranthus viridis L.). The test is described as above. Particulars: soil surface spray, upland field soil, 1,000 g active ingredient per hectare, 21st day after application. As to the method:
as §2

Where [8] appears, read: soil application to paddy field, rated by standard of Table 34.

Each structure is given as a SMILES string.

`CCCS(=O)(=O)Oc1c(C(=O)c2ccc(C(F)(F)F)n(-c3ccc([N+](=O)[O-])cc3)c2=O)cnn1C` [IV-68]: the “herbicidal effect, Echinochloa oryzicola Vasing” value in test [1] was 4 (70 to less than 90% of herbicidal effect and crop phytotoxicity). For the same molecule, the “herbicidal effect, Scirpus juncoides Roxb.” value in test [2] is 4 (70 to less than 90% of herbicidal effect and crop phytotoxicity). The “herbicidal effect, Monochoria vaginalis (Burm. f.) C. Presl” value (“herbicidal effect, Monochoria vaginalis” below) in test [3] is 5 (90% or more of herbicidal effect and crop phytotoxicity). In test [4], the “herbicidal effect (index), Velvetleaf” value was 5 (90% or more of herbicidal effect and crop phytotoxicity). In test [5], the “herbicidal effect (index), Green Foxtail” value is 4 (70 to less than 90% of herbicidal effect and crop phytotoxicity). For the same molecule, the “herbicidal effect (index), Barnyardgrass” value in test [6] was 4 (70 to less than 90% of herbicidal effect and crop phytotoxicity). Also, in test [7], the “herbicidal effect (index), Slender Amaranth” value is 5 (90% or more of herbicidal effect and crop phytotoxicity).
As for `COC1=C(C(=O)c2ccc(C(F)(F)F)n(C)c2=O)C(=O)CCC1` [II-22], the “herbicidal effect, Echinochloa oryzicola Vasing” value in test [1] is 5 (90% or more of herbicidal effect and crop phytotoxicity). In test [2], the “herbicidal effect, Scirpus juncoides Roxb.” value is 5 (90% or more of herbicidal effect and crop phytotoxicity). Moreover, in test [3], the “herbicidal effect, Monochoria vaginalis” value was 5 (90% or more of herbicidal effect and crop phytotoxicity). Also, in test [4], the “herbicidal effect (index), Velvetleaf” value was 5 (90% or more of herbicidal effect and crop phytotoxicity). Besides, the “herbicidal effect (index), Green Foxtail” value in test [5] is 4 (70 to less than 90% of herbicidal effect and crop phytotoxicity). Moreover, the “herbicidal effect (index), Barnyardgrass” value in test [6] is 4 (70 to less than 90% of herbicidal effect and crop phytotoxicity). Besides, the “herbicidal effect (index), Slender Amaranth” value in test [7] was 5 (90% or more of herbicidal effect and crop phytotoxicity).
Take `CCCS(=O)(=O)Oc1c(C(=O)c2ccc(C(F)(F)F)n(-c3ccccc3)c2=O)c(C)nn1C` [IV-237]: the “herbicidal effect, Echinochloa oryzicola Vasing” value in test [1] is 5 (90% or more of herbicidal effect and crop phytotoxicity). For the same molecule, in test [2], the “herbicidal effect, Scirpus juncoides Roxb.” value is 5 (90% or more of herbicidal effect and crop phytotoxicity). For the same molecule, the “herbicidal effect, Monochoria vaginalis” value in test [3] is 5 (90% or more of herbicidal effect and crop phytotoxicity). Also, the “herbicidal effect (index), Velvetleaf” value in test [4] was 4 (70 to less than 90% of herbicidal effect and crop phytotoxicity). Further, in test [5], the “herbicidal effect (index), Green Foxtail” value is 4 (70 to less than 90% of herbicidal effect and crop phytotoxicity). Also, the “herbicidal effect (index), Barnyardgrass” value in test [6] was 4 (70 to less than 90% of herbicidal effect and crop phytotoxicity). Further, in test [7], the “herbicidal effect (index), Slender Amaranth” value is 5 (90% or more of herbicidal effect and crop phytotoxicity).
Regarding `CCCS(=O)(=O)Oc1c(C(=O)c2ccc(C(F)(F)F)n(-c3ccc(F)c(COC)c3)c2=O)cnn1C` [IV-94], the “herbicidal effect, Echinochloa oryzicola Vasing” value in test [1] was 5 (90% or more of herbicidal effect and crop phytotoxicity). For the same molecule, the “herbicidal effect, Scirpus juncoides Roxb.” value in test [2] was 5 (90% or more of herbicidal effect and crop phytotoxicity). Further, the “herbicidal effect, Monochoria vaginalis” value in test [3] was 5 (90% or more of herbicidal effect and crop phytotoxicity). For the same molecule, the “herbicidal effect (index), Velvetleaf” value in test [4] was 5 (90% or more of herbicidal effect and crop phytotoxicity). In addition, the “herbicidal effect (index), Green Foxtail” value in test [5] was 4 (70 to less than 90% of herbicidal effect and crop phytotoxicity). Moreover, in test [6], the “herbicidal effect (index), Barnyardgrass” value is 5 (90% or more of herbicidal effect and crop phytotoxicity). The “herbicidal effect (index), Slender Amaranth” value in test [7] was 5 (90% or more of herbicidal effect and crop phytotoxicity).
Regarding `CCCS(=O)(=O)Oc1c(C(=O)c2ccc(C(F)(F)F)n(-c3ccc(F)c(F)c3)c2=O)cnn1C` [IV-87], the “herbicidal effect, Echinochloa oryzicola Vasing” value in test [1] was 5 (90% or more of herbicidal effect and crop phytotoxicity). For the same molecule, the “herbicidal effect, Scirpus juncoides Roxb.” value in test [2] was 5 (90% or more of herbicidal effect and crop phytotoxicity). Also, the “herbicidal effect, Monochoria vaginalis” value in test [3] was 5 (90% or more of herbicidal effect and crop phytotoxicity). In test [4], the “herbicidal effect (index), Velvetleaf” value was 5 (90% or more of herbicidal effect and crop phytotoxicity). Besides, in test [5], the “herbicidal effect (index), Green Foxtail” value was 5 (90% or more of herbicidal effect and crop phytotoxicity). The “herbicidal effect (index), Barnyardgrass” value in test [6] was 5 (90% or more of herbicidal effect and crop phytotoxicity). Further, the “herbicidal effect (index), Slender Amaranth” value in test [7] was 5 (90% or more of herbicidal effect and crop phytotoxicity).
Take `COn1c(C(F)(F)F)ccc(C(=O)C2=C(O)CCCC2=O)c1=O` [I-202]: the “herbicidal effect, Echinochloa oryzicola Vasing” value in test [1] was 5 (90% or more of herbicidal effect and crop phytotoxicity). For the same molecule, the “herbicidal effect, Scirpus juncoides Roxb.” value in test [2] is 5 (90% or more of herbicidal effect and crop phytotoxicity). Moreover, in test [3], the “herbicidal effect, Monochoria vaginalis” value was 5 (90% or more of herbicidal effect and crop phytotoxicity). Further, in test [4], the “herbicidal effect (index), Velvetleaf” value was 5 (90% or more of herbicidal effect and crop phytotoxicity). The “herbicidal effect (index), Green Foxtail” value in test [5] is 5 (90% or more of herbicidal effect and crop phytotoxicity). For the same molecule, in test [6], the “herbicidal effect (index), Barnyardgrass” value is 5 (90% or more of herbicidal effect and crop phytotoxicity). In addition, the “herbicidal effect (index), Slender Amaranth” value in test [7] was 5 (90% or more of herbicidal effect and crop phytotoxicity).
Turning to `CCCS(=O)(=O)Oc1c(C(=O)c2ccc(C(F)(F)F)n(-c3ccc(F)c(F)c3)c2=O)c(C)nn1C` [IV-88], the “herbicidal effect, Echinochloa oryzicola Vasing” value in test [1] is 5 (90% or more of herbicidal effect and crop phytotoxicity). Moreover, the “herbicidal effect, Scirpus juncoides Roxb.” value in test [2] is 4 (70 to less than 90% of herbicidal effect and crop phytotoxicity). Further, the “herbicidal effect, Monochoria vaginalis” value in test [3] was 5 (90% or more of herbicidal effect and crop phytotoxicity). Also, in test [4], the “herbicidal effect (index), Velvetleaf” value is 5 (90% or more of herbicidal effect and crop phytotoxicity). Besides, the “herbicidal effect (index), Green Foxtail” value in test [5] is 5 (90% or more of herbicidal effect and crop phytotoxicity). Further, the “herbicidal effect (index), Barnyardgrass” value in test [6] was 5 (90% or more of herbicidal effect and crop phytotoxicity). Moreover, in test [7], the “herbicidal effect (index), Slender Amaranth” value is 5 (90% or more of herbicidal effect and crop phytotoxicity).
Consider `CCCn1c(C(F)(F)F)ccc(C(=O)C(C#N)=C(O)C2CC2)c1=O` [V-21], for which the “herbicidal effect (index), Echinochloa oryzicola Vasing” value in test [1] (setting [8]) is 5 (90% or more of herbicidal effect and crop phytotoxicity). In addition, the “herbicidal effect (index), Scirpus juncoides Roxb.” value in test [2] (setting [8]) is 5 (90% or more of herbicidal effect and crop phytotoxicity). The “herbicidal effect (index), Monochoria vaginalis (Burm.f.) C.Presl” value in test [3] (setting [8]) was 5 (90% or more of herbicidal effect and crop phytotoxicity). In addition, in test [4], the “herbicidal effect (index), Velvetleaf” value was 5 (90% or more of herbicidal effect and crop phytotoxicity). The “herbicidal effect (index), Green Foxtail” value in test [5] is 5 (90% or more of herbicidal effect and crop phytotoxicity). Further, the “herbicidal effect (index), Barnyardgrass” value in test [6] is 5 (90% or more of herbicidal effect and crop phytotoxicity). For the same molecule, in test [7], the “herbicidal effect (index), Slender Amaranth” value is 5 (90% or more of herbicidal effect and crop phytotoxicity).
Consider `Cn1ncc(C(=O)c2ccc(C(F)(F)F)n(CC3CCCO3)c2=O)c1OC(=O)c1ccccc1` (stereo not shown) [IV-131], for which, in test [1], the “herbicidal effect, Echinochloa oryzicola Vasing” value was 5 (90% or more of herbicidal effect and crop phytotoxicity). For the same molecule, in test [2], the “herbicidal effect, Scirpus juncoides Roxb.” value was 5 (90% or more of herbicidal effect and crop phytotoxicity). Further, the “herbicidal effect, Monochoria vaginalis” value in test [3] was 5 (90% or more of herbicidal effect and crop phytotoxicity). For the same molecule, the “herbicidal effect (index), Velvetleaf” value in test [4] is 4 (70 to less than 90% of herbicidal effect and crop phytotoxicity). For the same molecule, the “herbicidal effect (index), Green Foxtail” value in test [5] was 3 (50 to less than 70% of herbicidal effect and crop phytotoxicity). Further, the “herbicidal effect (index), Barnyardgrass” value in test [6] is 4 (70 to less than 90% of herbicidal effect and crop phytotoxicity). Besides, in test [7], the “herbicidal effect (index), Slender Amaranth” value was 5 (90% or more of herbicidal effect and crop phytotoxicity).
Turning to `Cn1c(C(F)(F)F)ccc(C(=O)C2=C(Sc3ccc(Cl)cc3Cl)CCCC2=O)c1=O` [II-14], the “herbicidal effect, Echinochloa oryzicola Vasing” value in test [1] was 5 (90% or more of herbicidal effect and crop phytotoxicity). Moreover, the “herbicidal effect, Scirpus juncoides Roxb.” value in test [2] is 5 (90% or more of herbicidal effect and crop phytotoxicity). For the same molecule, the “herbicidal effect, Monochoria vaginalis” value in test [3] was 5 (90% or more of herbicidal effect and crop phytotoxicity). Besides, in test [4], the “herbicidal effect (index), Velvetleaf” value was 5 (90% or more of herbicidal effect and crop phytotoxicity). Besides, the “herbicidal effect (index), Green Foxtail” value in test [5] is 3 (50 to less than 70% of herbicidal effect and crop phytotoxicity). In addition, in test [6], the “herbicidal effect (index), Barnyardgrass” value was 4 (70 to less than 90% of herbicidal effect and crop phytotoxicity). Also, the “herbicidal effect (index), Slender Amaranth” value in test [7] is 5 (90% or more of herbicidal effect and crop phytotoxicity).
